Source: publication PMC8931317 (Proceedings of the National Academy of Sciences of the …, 2022)

Molecular target: T1, YeiE (CsYeiE) (Cronobacter sakazakii, UniProt H9BVC9)
T1 sequence (H9BVC9 85-288): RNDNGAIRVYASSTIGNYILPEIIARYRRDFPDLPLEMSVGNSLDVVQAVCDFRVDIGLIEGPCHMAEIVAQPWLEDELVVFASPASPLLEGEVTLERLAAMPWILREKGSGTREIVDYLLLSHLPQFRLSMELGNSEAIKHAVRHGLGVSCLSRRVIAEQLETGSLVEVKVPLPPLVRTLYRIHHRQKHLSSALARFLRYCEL
Test: ITC
Type: binding

Kd: 1.38 µM
Structure (SMILES): O=S(O)O [sulfite]
